According to patent publication US20260159486A1, “BENZO[H]QUINAZOLINE-4-AMINE DERIVATIVES FOR THE TREATMENT OF CANCER” (Redona Therapeutics, Inc., priority 2021, published 2026):

Experiments:
recombinant human CLK3 = biological target: T1, recombinant human CLK3 (Homo sapiens, UniProt P49761); experiment: CLK3 kinase assay (LANCE Ultra); format: biochemical; settings: CLK3 0.5 nM, ATP 300 μM, 3 hours at 30° C.
T1 construct: purchased Thermo Fisher Scientific PV3826
In short: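 Recombinant human CLK3 (0.5 nM) with ULight-CREBtide (50 nM) and 300 μM ATP, 3 h at 30 °C in kinase buffer; EDTA stop, then Eu-anti-phospho-CREB antibody (2 nM, 1 h RT), TR-FRET read at 665/620 nm. Inhibition normalized to DMSO and no-ATP wells; IC50 from 4-parameter fit, ten 1:3 concentrations in duplicate.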

CAL-51 cells = experiment: CAL-51 proliferation assay; format: cell-based; settings: YO-PRO-1 Iodide readout
In short: (§1)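 Cells seeded at 750 per well, treated next day for 72 h at 37 °C with 0.5% final DMSO. Cell number read by YO-PRO-1 fluorescence after lysis, normalized to DMSO (100%) and time-zero cells (0%). GI50 from 4-parameter logistic fit, maximum constrained to 100%.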

[1] = system: phospho-SRSF6 in MDA-MB-468 cells; experiment: Inhibition of phospho-SRSF6 levels in MDA-MB-468 cells (Western blot); format: cell-based; settings: Homo sapiens, 2 hours, compared to DMSO control; for inhibition at 0.01 µM: 10 nM, read-out: >50% p-SRSF6 reduction at 10 nM; for inhibition at 0.1 µM: 100 nM, read-out: >50% p-SRSF6 reduction at 100 nM
Method: FIG. 1: FIG. 1 provides a representative Western blot showing reduction of phosphorylated-SRSF6 (P—SRSF6) in MDA-MB 468 cells by compounds of the invention. GAPDH was probed for by Western blotting to control for equal protein loading and for normalization of samples. The numbers below the blots show percent inhibition of the P—SRSF6 signal at 100 nM (A) or 10 nM (B) compared to DMSO control.
Assessment of Inhibition of Phospho-SRSF6 Levels in MDA-MB-468 Cells
MDA-MB-468 cells (ATCC, HTB-132) were cultured in DMEM (BioConcept cat. no. 1-26F03) supplemented with 10% FBS (Sigma cat. no. F9665), […] (Sigma cat. no. S8636), 1% Penicillin-Streptomycin (BioConcept cat. no. 4-01FOO-H). When cells reached a density of 70% o in 6-well plates (TPP cat. no. 92006), they were treated either with the test compound vehicle DMSO, or with experimental compounds at a final concentration of either 10 or 100 nM for 2 hours. Thereafter, the culture medium was removed and cells were collected by scraping in Lysis Buffer (20 mM Tris HCl pH7.5, 150 mM NaCl, 1 mM EGTA, 1 mM EDTA, 1% o Triton and 1% o NP-40) containing protease and phosphatase inhibitors (Halt™ Protease&Phosphatase inhibitor cocktail 100× ThermioScientific cat. no. 1861281) and 1 mM PMSF (Fluka cat. no. 93482). Cleared lysates were stored in Eppendorfftubes at −80° C. until use, and protein concentration in lysates was determined using Pierce 660 nm Protein Assay Reagent (ThermioScientific cat. no. 22660). 20 μg proteins were diluted in 4× Laemmli buffer (Biorad cat. no. 161-0747) containing 10% beta-mercaptoethanol, separated by SDS-PAGE using 10% gels, and then transferred to PVDF membranes (Trans Blot Turbo Transfer Pack BioRad cat. no. 1704156) by Trans-Blot® Turbo™ System semidry blotting methodology (BioRad). Primary antibodies were incubated in TBS-0.1% Tween-20 buffer containing 3% BSA Bovine Albumin Fr.V (Millipore cat. no. 81-053-3) overnight at 4° C. The following primary antibodies were used: Mouse anti-phosphoepitope SR proteins clone 1H4 (Millipore cat. no. MABE50) diluted 1:5000, and rabbit anti-GAPDH clone 14C10 (Cell Signaling cat. no. 2118S) to control for equal protein loading, diluted 1:2000. HRP-conjugated secondary antibodies were incubated one hour at room temperature diluted 1:5000 in TBS-0.1% Tween-20 buffer containing […] nonfat-dried bovine milk (Sigma cat. no. M7409). The following secondary antibodies were used: Goat anti-mouse-HRP (Jackson cat. no. 115-035-146) and goat anti-rabbit-HRP (Jackson cat. no. 111-035-144). Membranes were incubated with ECL Prime Western Blot Detection Reagent (Amersham cat. no. RPN2236) to detect specific signals using Fusion SOLO S device (Vilber Lourmat). Pixel intensity of the phopsho-SRSF6 (MW 55 kDa in reference to markers) and GAPDH (MW 37 kDa) signals in the Western blots were determined using Evolution-Capt image analysis software (v17.01, Vilber Lourmat). DMSO control was used to set the phospho-SRSF6 signal at baseline, phospho-SRSF6 signals for each sample were normalized by the respective GAPDH signals and percent intensity of P—SRSF6 signal at 10 and 100 nM compound compared to DMSO control was calculated (see FIG. 1).

MDA-MB-231 cells = experiment: MDA-MB-231 proliferation assay; format: cell-based; settings: YO-PRO-1 Iodide readout
In short: as §1

T1 sequence (P49761 whole entry): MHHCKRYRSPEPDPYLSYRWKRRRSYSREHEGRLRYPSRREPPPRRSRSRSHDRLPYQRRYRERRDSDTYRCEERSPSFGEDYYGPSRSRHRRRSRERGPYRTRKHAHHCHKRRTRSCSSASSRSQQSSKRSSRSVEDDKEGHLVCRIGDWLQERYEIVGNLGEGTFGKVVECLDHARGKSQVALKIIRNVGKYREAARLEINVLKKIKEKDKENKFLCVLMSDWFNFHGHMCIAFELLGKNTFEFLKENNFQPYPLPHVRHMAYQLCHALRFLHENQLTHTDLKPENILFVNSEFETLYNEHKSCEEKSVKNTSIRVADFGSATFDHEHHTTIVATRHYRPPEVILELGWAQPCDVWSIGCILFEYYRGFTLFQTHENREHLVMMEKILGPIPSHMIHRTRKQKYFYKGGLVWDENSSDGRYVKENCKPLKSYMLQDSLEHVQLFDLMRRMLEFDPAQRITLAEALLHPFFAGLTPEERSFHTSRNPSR

Structure (SMILES) | IC50 (recombinant human CLK3) | GI50 (MDA-MB-231 cells; Homo sapiens, MDA-MB-231, 72 h) | GI50 (MDA-MB-231 cells; 72 hours) | GI50 (CAL-51 cells; Homo sapiens, CAL-51, 72 h) | inhibition at 0.01 µM [1] | inhibition at 0.1 µM [1] | GI50 (CAL-51 cells; 72 hours)
CCNc1c(O[C@H]2CC[C@H](N)CC2)ccc2c1CC(C)(C)c1c(N)ncnc1-2 [Example 8, 8-(trans-4-aminocyclohexoxy)-N7-ethyl-5,5-dimethyl-6H-benzo[h]quinazoline-4,7-diamine] | 30 to 100 nM | 100 to 2000 nM | – | < 100 nM | < 50% | > 50% | –
CC1(C)Cc2c(ccc(O[C@H]3CC[C@H](N)CC3)c2N2CCC(O)C2)-c2ncnc(N)c21 (single isomer, unassigned) [Example 16, 1-[4-amino-8-(trans-4-aminocyclohexoxy)-5,5-dimethyl-6H-benzo[h]quinazolin-7-yl]pyrrolidin-3-ol] | < 30 nM | – | < 100 nM | – | > 50% | > 50% | < 100 nM
CCN(CC)c1c(O[C@H]2CC[C@H](N)CC2)ccc2c1CC(C)(C)c1c(N)ncnc1-2 [Example 7, 8-(trans-4-aminocyclohexoxy)-N7,N7-diethyl-5,5-dimethyl-6H-benzo[h]quinazoline-4,7-diamine] | < 30 nM | 100 to 2000 nM | – | 100 to 2000 nM | > 50% | > 50% | –
CN(CC(C)(C)O)c1c(O[C@H]2CC[C@H](N)CC2)ccc2c1CC(C)(C)c1c(N)ncnc1-2 [Example 40, 1-[[4-amino-8-(trans-4-aminocyclohexoxy)-5,5-dimethyl-6H-benzo[h]quinazolin-7-yl]-methyl-amino]-2-methyl-propan-2-ol] | 30 to 100 nM | 100 to 2000 nM | – | < 100 nM | > 50% | > 50% | –
Nc1ncnc2c1C1(CCCC1)Cc1c-2ccc(O[C@H]2CC[C@H](N)CC2)c1N [Example 37, 8-(trans-4-aminocyclohexoxy)spiro[6H-benzo[h]quinazoline-5,1′-cyclopentane]-4,7-diamine] | 30 to 100 nM | 100 to 2000 nM | – | < 100 nM | > 50% | > 50% | –
CC1(C)Cc2c(ccc(O[C@H]3CC[C@H](N)CC3)c2-n2cccc2)-c2ncnc(N)c21 [Example 17, 8-(trans-4-aminocyclohexoxy)-5,5-dimethyl-7-pyrrol-1-yl-6H-benzo[h]quinazolin-4-amine] | < 30 nM | < 100 nM | – | < 100 nM | < 50% | > 50% | –

Continued, in another order:

IC50 (recombinant human CLK3) | GI50 (MDA-MB-231 cells; Homo sapiens, MDA-MB-231, 72 h) | GI50 (MDA-MB-231 cells; 72 hours) | Structure (SMILES) | GI50 (CAL-51 cells; Homo sapiens, CAL-51, 72 h) | inhibition at 0.01 µM [1] | inhibition at 0.1 µM [1] | GI50 (CAL-51 cells; 72 hours)
< 30 nM | < 100 nM | – | CN(C)c1c(O[C@H]2CC[C@H](N)CC2)ccc2c1CC(C)(C)c1c(N)ncnc1-2 [Example 20, 8-(trans-4-aminocyclohexoxy)-N7,N7,5,5-tetramethyl-6H-benzo[h]quinazoline-4,7-diamine] | < 100 nM | > 50% | > 50% | –
< 30 nM | < 100 nM | – | CN(CCC#N)c1c(O[C@H]2CC[C@H](N)CC2)ccc2c1CC(C)(C)c1c(N)ncnc1-2 [Example 46, 3-[[4-amino-8-(trans-4-aminocyclohexoxy)-5,5-dimethyl-6H-benzo[h]quinazolin-7-yl]-methyl-amino]propanenitrile] | < 100 nM | > 50% | > 50% | –
< 30 nM | < 100 nM | – | CN(CCO)c1c(O[C@H]2CC[C@H](N)CC2)ccc2c1CC(C)(C)c1c(N)ncnc1-2 [Example 12, 2-[[4-amino-8-(trans-4-aminocyclohexoxy)-5,5-dimethyl-6H-benzo[h]quinazolin-7-yl]-methyl-amino]ethanol] | < 100 nM | < 50% | > 50% | –
< 30 nM | < 100 nM | – | CN(CC#N)c1c(O[C@H]2CC[C@@H](N)CC2)ccc2c1CC(C)(C)c1c(N)ncnc1-2 [Example 30, 2-[[4-amino-8-(cis-4-aminocyclohexoxy)-5,5-dimethyl-6H-benzo[h]quinazolin-7-yl]-methyl-amino]acetonitrile] | < 100 nM | > 50% | > 50% | –
